# Data from US4433154A, “Bis(carboxamide) derivatives” (Shionogi & Company, Limited, priority 1981, dated 1984).
# Biological target: T1, histamine H2 receptor (Cavia porcellus, UniProt P47747)
# T1 construct: enucleated atrium of a guinea pig; from tissue; host or cells: guinea pig atrium
# Assay: Histamine H2-blocking effect in enucleated guinea pig atrium (inhibition of histamine-increased pulse)
# Type: cell-based
# Details: in vitro; enucleated guinea pig atrium pretreated with drug; negative logarithm of antagonist dose shifting histamine dose-response curve corresponding to doubling of histamine concentration; read-out: pA2 (converted)
# Source text: In the table 10, the symbol pA2 indicates the degree of pulse inhibition of the compounds (I) in the present invention in the enucleated atrium of a guinea pig. The assigned number of compounds in the table conforms to the number of the examples.
# (Note) PA2 is an in vitro indicator of histamine H2 -blocking effect. […] The result was shown by negative logarithms of the dose of antagonist which is required to shift the dose-response curve of histamine in parallel to the side corresponding to a doubling of the concentration of histamine [Ariens, Molecular Pharmacology, vol./, Academic Press, New York (1964)].
# T1 sequence (P47747 whole entry): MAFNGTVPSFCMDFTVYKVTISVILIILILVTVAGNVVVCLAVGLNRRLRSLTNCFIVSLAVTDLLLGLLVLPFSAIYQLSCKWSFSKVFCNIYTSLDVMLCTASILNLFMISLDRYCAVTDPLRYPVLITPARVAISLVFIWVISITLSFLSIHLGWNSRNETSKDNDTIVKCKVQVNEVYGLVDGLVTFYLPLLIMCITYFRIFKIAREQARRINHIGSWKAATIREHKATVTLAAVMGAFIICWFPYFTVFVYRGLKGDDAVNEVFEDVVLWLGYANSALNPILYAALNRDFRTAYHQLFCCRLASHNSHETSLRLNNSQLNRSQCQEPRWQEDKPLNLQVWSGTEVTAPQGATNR
row,Kb,Compound
1,53.7 nM,"O=C(/C=C/C(=O)NCCCOc1cccc(CN2CCCC2)c1)NCCCOc1cccc(CN2CCCC2)c1 [Example 10, N,N'-bis{3-[3-(1-pyrrolidinylmethyl)phenoxy]propyl}fumaramide]"
2,204 nM,O=C(NCCCOc1cccc(CN2CCCC2)c1)c1ccc(C(=O)NCCCOc2cccc(CN3CCCC3)c2)cc1 [Example 11]
3,66.1 nM,"O=C(CSCC(=O)NCCCOc1cccc(CN2CCCC2)c1)NCCCOc1cccc(CN2CCCC2)c1 [Example 12, N,N'-bis{3-[3-(1-pyrrolidinylmethyl)phenoxy]propyl}thiodiglycoldamide]"
4,60.3 nM,O=C(NCCCOc1cccc(CN2CCCC2)c1)c1cccc(C(=O)NCCCOc2cccc(CN3CCCC3)c2)c1 [Example 14]
